# From ChEMBL document CHEMBL4823332, “Discovery and Development of Cyclic Peptide Inhibitors of CIB1” (ACS Med Chem Lett, 2021)
# Positions of bridges follow the written chain, without caps; N, C: chain ends. Non-standard residues stand in square brackets, D forms with d. Residues, ends and D or L forms follow the SMILES beside them. NMeW = CN[C@@H](Cc1c[nH]c2ccccc12)C(=O)O; Ala(2-furyl) = N[C@@H](Cc1ccco1)C(=O)O; NMeY = CN[C@@H](Cc1ccc(O)cc1)C(=O)O; hLeu = CC(C)CC[C@H](N)C(=O)O; NMeA = CN[C@@H](C)C(=O)O
# Target: T1, Calcium and integrin-binding protein 1 (Homo sapiens, UniProt Q99828)
# T1 sequence (Q99828 whole entry): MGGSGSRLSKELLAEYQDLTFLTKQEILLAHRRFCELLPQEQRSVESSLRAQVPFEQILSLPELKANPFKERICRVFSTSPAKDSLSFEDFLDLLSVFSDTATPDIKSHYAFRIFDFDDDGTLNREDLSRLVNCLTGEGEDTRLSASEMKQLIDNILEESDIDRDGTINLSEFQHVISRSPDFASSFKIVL
# Assay: Displacement of Alexa Fluor 647 labelled UNC10245092 peptide from CIB1 (unknown origin) preincubated for 20 mins followed by Alexa-CIB1 phage peptide addition and measured after 20 to 30 mins by TR-FRET assay
row,Compound,IC50
1,CC[C@H](C)[C@@H]1NC(=O)[C@H]([C@@H](C)O)NC(=O)[C@H](Cc2c[nH]c3ccccc23)NC(=O)[C@@H]2CCCN2C(=O)CNC(=O)[C@H]([C@@H](C)O)NC(=O)[C@H](Cc2ccc(O)cc2)NC(=O)CSC[C@H](C(N)=O)NC(=O)[C@H](Cc2c[nH]c3ccccc23)NC(=O)[C@H](CCCNC(=N)N)NC1=O,12 nM
2,CCCC[C@@H]1NC(=O)[C@H](Cc2ccc(O)cc2)N(C)C(=O)CSC[C@@H](C(N)=O)NC(=O)[C@H](Cc2c[nH]c3ccccc23)NC(=O)[C@H](CC(N)=O)NC(=O)[C@H]([C@@H](C)CC)NC(=O)[C@H](CC(C)C)NC(=O)[C@H](Cc2c[nH]c3ccccc23)NC(=O)[C@H](Cc2ccc(O)cc2)NC(=O)[C@@H]2CCCN2C(=O)[C@@H](CCC(C)C)NC1=O,840 nM
3,CCCC[C@@H]1NC(=O)[C@H](Cc2ccc(O)cc2)N(C)C(=O)CSC[C@@H](C(N)=O)NC(=O)[C@H](Cc2c[nH]c3ccccc23)NC(=O)[C@@H](Cc2ccco2)NC(=O)[C@H]([C@@H](C)CC)NC(=O)[C@H](CC(C)C)NC(=O)[C@H](Cc2c[nH]c3ccccc23)NC(=O)[C@H](Cc2ccc(O)cc2)N(C)C(=O)[C@@H]2CCCN2C(=O)[C@H](CCC(N)=O)NC1=O,3900 nM
4,CC[C@H](C)[C@@H]1NC(=O)[C@H](CC(C)C)NC(=O)[C@H](Cc2c[nH]c3ccccc23)NC(=O)[C@H](Cc2ccccc2)NC(=O)[C@@H]2CCCN2C(=O)[C@H](C)NC(=O)[C@H](C)NC(=O)[C@H](Cc2ccc(O)cc2)NC(=O)CSC[C@@H](C(N)=O)NC(=O)[C@H](Cc2c[nH]c3ccccc23)NC(=O)[C@H](CC(C)C)NC1=O ({CH2CO}-YAAPFWLILWC-NH2; thioether N-11),300 nM
5,CC[C@H](C)[C@@H]1NC(=O)[C@H](CC(C)C)NC(=O)[C@H](Cc2c[nH]c3ccccc23)NC(=O)[C@H](Cc2ccc(O)cc2)NC(=O)[C@@H]2CCCN2C(=O)[C@H](C)NC(=O)[C@H](C)NC(=O)[C@H](Cc2ccc(O)cc2)NC(=O)CSC[C@@H](C(N)=O)NC(=O)[C@H](Cc2c[nH]c3ccccc23)NC(=O)[C@H](C)NC1=O ({CH2CO}-YAAPYWLIAWC-NH2; thioether N-11),820 nM
6,CC[C@H](C)[C@@H]1NC(=O)[C@H](CC(C)C)NC(=O)[C@H](Cc2c[nH]c3ccccc23)NC(=O)[C@H](Cc2ccc(O)cc2)N(C)C(=O)[C@@H]2CCCN2C(=O)[C@H](CCC(N)=O)NC(=O)[C@H](C)NC(=O)[C@H](Cc2ccc(O)cc2)NC(=O)CSC[C@@H](C(N)=O)NC(=O)[C@H](Cc2c[nH]c3ccccc23)NC(=O)[C@H](CC(C)C)NC1=O ({CH2CO}-YAQP[NMeY]WLILWC-NH2; thioether N-11),67 nM
7,CC[C@H](C)[C@@H]1NC(=O)[C@H](CC(C)C)NC(=O)[C@H](Cc2c[nH]c3ccccc23)NC(=O)[C@H](Cc2ccc(O)cc2)NC(=O)[C@@H]2CCCN2C(=O)[C@H](C)NC(=O)[C@H](CCCCN)NC(=O)[C@H](Cc2ccc(O)cc2)NC(=O)CSC[C@@H](C(N)=O)NC(=O)[C@H](Cc2c[nH]c3ccccc23)NC(=O)[C@H](CC(N)=O)NC1=O ({CH2CO}-YKAPYWLINWC-NH2; thioether N-11),40 nM
8,CC[C@H](C)[C@@H]1NC(=O)[C@H](CC(C)C)NC(=O)[C@H](Cc2c[nH]c3ccccc23)NC(=O)[C@H](Cc2ccc(O)cc2)NC(=O)[C@H](C)NC(=O)[C@H](CCC(N)=O)NC(=O)[C@H](CCCCN)NC(=O)[C@H](Cc2ccc(O)cc2)NC(=O)CSC[C@@H](C(N)=O)NC(=O)[C@H](Cc2c[nH]c3ccccc23)NC(=O)[C@H](CC(N)=O)NC1=O ({CH2CO}-YKQAYWLINWC-NH2; thioether N-11),9 nM
9,CC[C@H](C)[C@@H]1NC(=O)[C@H](CC(C)C)NC(=O)[C@H](Cc2c[nH]c3ccccc23)N(C)C(=O)[C@H](Cc2ccc(O)cc2)NC(=O)[C@@H]2CCCN2C(=O)[C@H](CCC(N)=O)NC(=O)[C@H](CCCCN)NC(=O)[C@H](Cc2ccc(O)cc2)NC(=O)CSC[C@@H](C(N)=O)NC(=O)[C@H](Cc2c[nH]c3ccccc23)NC(=O)[C@H](CC(N)=O)NC1=O ({CH2CO}-YKQPY[NMeW]LINWC-NH2; thioether N-11),59 nM
10,CC[C@H](C)[C@@H]1NC(=O)[C@H](CCCNC(=N)N)NC(=O)[C@H](Cc2c[nH]c3ccccc23)NC(=O)[C@H]([C@@H](C)O)NC(=O)[C@H](CO)NC(=O)[C@H](CCC(N)=O)NC(=O)[C@H](CCC(N)=O)NC(=O)[C@H](Cc2ccc(O)cc2)NC(=O)CSC[C@@H](C(N)=O)NC(=O)[C@H](Cc2c[nH]c3ccccc23)NC(=O)[C@H](CC(N)=O)NC1=O ({CH2CO}-YQQSTWRINWC-NH2; thioether N-11),65 nM
11,CC[C@H](C)[C@@H]1NC(=O)[C@H](CC(N)=O)NC(=O)[C@H](Cc2c[nH]c3ccccc23)NC(=O)[C@H]([C@@H](C)CC)NC(=O)[C@@H]2CCCN2C(=O)[C@H]([C@@H](C)O)NC(=O)[C@H]([C@@H](C)O)NC(=O)[C@H](Cc2ccc(O)cc2)NC(=O)CSC[C@@H](C(N)=O)NC(=O)[C@H](Cc2ccccc2)NC(=O)[C@H](CCCNC(=N)N)NC1=O ({CH2CO}-YTTPIWNIRFC-NH2; thioether N-11),15 nM
12,CC[C@H](C)[C@@H]1NC(=O)[C@H](CC(C)C)NC(=O)[C@H](Cc2c[nH]c3ccccc23)N(C)C(=O)[C@H](Cc2ccc(O)cc2)NC(=O)[C@@H]2CCCN2C(=O)[C@H](CCC(N)=O)NC(=O)[C@H](C)N(C)C(=O)[C@H](Cc2ccc(O)cc2)NC(=O)CSC[C@@H](C(N)=O)NC(=O)[C@H](Cc2c[nH]c3ccccc23)NC(=O)[C@H](CC(N)=O)NC1=O ({CH2CO}-Y[NMeA]QPY[NMeW]LINWC-NH2; thioether N-11),54 nM
13,CC[C@H](C)[C@@H]1NC(=O)[C@H](CC(C)C)NC(=O)[C@H](Cc2c[nH]c3ccccc23)N(C)C(=O)[C@H](Cc2ccc(O)cc2)NC(=O)[C@@H]2CCCN2C(=O)[C@H](CCC(N)=O)NC(=O)[C@H](C)N(C)C(=O)[C@H](Cc2ccc(O)cc2)NC(=O)CSC[C@@H](C(N)=O)NC(=O)[C@H](Cc2c[nH]c3ccccc23)NC(=O)[C@H](Cc2ccco2)NC1=O ({CH2CO}-Y[NMeA]QPY[NMeW]LI[Ala(2-furyl)]WC-NH2; thioether N-11),190 nM
14,CC[C@H](C)[C@@H]1NC(=O)[C@H](CC(C)C)NC(=O)[C@H](Cc2c[nH]c3ccccc23)NC(=O)[C@H](Cc2ccc(O)cc2)NC(=O)[C@@H]2CCCN2C(=O)[C@H](CCC(C)C)NC(=O)[C@H](C)N(C)C(=O)[C@H](Cc2ccc(O)cc2)NC(=O)CSC[C@@H](C(N)=O)NC(=O)[C@H](Cc2c[nH]c3ccccc23)NC(=O)[C@H](Cc2ccco2)NC1=O ({CH2CO}-Y[NMeA][hLeu]PYWLI[Ala(2-furyl)]WC-NH2; thioether N-11),4200 nM

# Next, values leading:
row,IC50,Compound
1,2500 nM,CC[C@H](C)[C@@H]1NC(=O)[C@H](CC(C)C)NC(=O)[C@H](Cc2c[nH]c3ccccc23)NC(=O)[C@H](Cc2ccc(O)cc2)NC(=O)[C@@H]2CCCN2C(=O)[C@H](CCC(N)=O)NC(=O)[C@H](CCCCN)NC(=O)[C@H](C)NC(=O)CSC[C@@H](C(N)=O)NC(=O)[C@H](Cc2c[nH]c3ccccc23)NC(=O)[C@H](CC(N)=O)NC1=O ({CH2CO}-AKQPYWLINWC-NH2; thioether N-11)
2,470 nM,CC[C@H](C)[C@@H]1NC(=O)[C@H](CC(C)C)NC(=O)[C@H](Cc2c[nH]c3ccccc23)NC(=O)[C@H](C)NC(=O)[C@@H]2CCCN2C(=O)[C@H](CCC(N)=O)NC(=O)[C@H](CCCCN)NC(=O)[C@H](Cc2ccc(O)cc2)NC(=O)CSC[C@@H](C(N)=O)NC(=O)[C@H](Cc2c[nH]c3ccccc23)NC(=O)[C@H](CC(N)=O)NC1=O ({CH2CO}-YKQPAWLINWC-NH2; thioether N-11)
3,430 nM,CC[C@H](C)[C@@H]1NC(=O)[C@H](CC(C)C)NC(=O)[C@H](C)NC(=O)[C@H](Cc2ccc(O)cc2)NC(=O)[C@@H]2CCCN2C(=O)[C@H](CCC(N)=O)NC(=O)[C@H](CCCCN)NC(=O)[C@H](Cc2ccc(O)cc2)NC(=O)CSC[C@@H](C(N)=O)NC(=O)[C@H](Cc2c[nH]c3ccccc23)NC(=O)[C@H](CC(N)=O)NC1=O ({CH2CO}-YKQPYALINWC-NH2; thioether N-11)
4,15 nM,CC[C@H](C)[C@@H]1NC(=O)[C@H](C)NC(=O)[C@H](Cc2c[nH]c3ccccc23)NC(=O)[C@H](Cc2ccc(O)cc2)NC(=O)[C@@H]2CCCN2C(=O)[C@H](CCC(N)=O)NC(=O)[C@H](CCCCN)NC(=O)[C@H](Cc2ccc(O)cc2)NC(=O)CSC[C@@H](C(N)=O)NC(=O)[C@H](Cc2c[nH]c3ccccc23)NC(=O)[C@H](CC(N)=O)NC1=O ({CH2CO}-YKQPYWAINWC-NH2; thioether N-11)
5,170 nM,CC(C)C[C@@H]1NC(=O)[C@H](Cc2c[nH]c3ccccc23)NC(=O)[C@H](Cc2ccc(O)cc2)NC(=O)[C@@H]2CCCN2C(=O)[C@H](CCC(N)=O)NC(=O)[C@H](CCCCN)NC(=O)[C@H](Cc2ccc(O)cc2)NC(=O)CSC[C@@H](C(N)=O)NC(=O)[C@H](Cc2c[nH]c3ccccc23)NC(=O)[C@H](CC(N)=O)NC(=O)[C@H](C)NC1=O ({CH2CO}-YKQPYWLANWC-NH2; thioether N-11)
6,76 nM,CC[C@H](C)[C@@H]1NC(=O)[C@H](CC(C)C)NC(=O)[C@H](Cc2c[nH]c3ccccc23)NC(=O)[C@H](Cc2ccc(O)cc2)NC(=O)[C@@H]2CCCN2C(=O)[C@H](CCC(N)=O)NC(=O)[C@H](CCCCN)NC(=O)[C@H](Cc2ccc(O)cc2)NC(=O)CSC[C@@H](C(N)=O)NC(=O)[C@H](Cc2c[nH]c3ccccc23)NC(=O)[C@H](C)NC1=O ({CH2CO}-YKQPYWLIAWC-NH2; thioether N-11)
7,7100 nM,CC[C@H](C)[C@@H]1NC(=O)[C@H](CC(C)C)NC(=O)[C@H](Cc2c[nH]c3ccccc23)NC(=O)[C@H](Cc2ccc(O)cc2)NC(=O)[C@@H]2CCCN2C(=O)[C@H](CCC(N)=O)NC(=O)[C@H](CCCCN)NC(=O)[C@H](Cc2ccc(O)cc2)NC(=O)CSC[C@@H](C(N)=O)NC(=O)[C@H](C)NC(=O)[C@H](CC(N)=O)NC1=O ({CH2CO}-YKQPYWLINAC-NH2; thioether N-11)
